Assay results published in patent US8486931B2, “Substituted oxindole compounds” (Abbott GmbH & Co. KG, priority 2007, dated 2013).

Molecular target: T1, human vasopressin V1b receptor (Homo sapiens, UniProt P47901)
T1 construct: expressed in transfected cells; host or cells: CHO-K1 (cell line hV1b-3H2_CHO), membrane preparation
T1 sequence (P47901 1-424): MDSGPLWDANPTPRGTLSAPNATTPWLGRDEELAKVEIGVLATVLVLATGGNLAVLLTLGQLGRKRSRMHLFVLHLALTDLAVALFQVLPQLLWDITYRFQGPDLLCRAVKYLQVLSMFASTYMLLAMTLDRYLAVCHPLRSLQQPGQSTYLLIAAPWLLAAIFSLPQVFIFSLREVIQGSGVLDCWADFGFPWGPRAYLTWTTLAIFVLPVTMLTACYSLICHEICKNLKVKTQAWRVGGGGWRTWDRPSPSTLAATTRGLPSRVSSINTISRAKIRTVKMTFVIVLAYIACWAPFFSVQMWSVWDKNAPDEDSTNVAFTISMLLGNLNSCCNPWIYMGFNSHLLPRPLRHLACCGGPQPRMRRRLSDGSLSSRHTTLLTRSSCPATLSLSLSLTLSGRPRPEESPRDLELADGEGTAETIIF
Test: Vasopressin V1b receptor binding assay
Settings: membranes from CHO-K1 cells with stably expressed human V1b receptors, 1.5 nM 3H-AVP displacement; with more than one stereogenic center: the diastereomer with stronger affinity
Description: Such compounds can be investigated in suitable assays which establish the affinity to a receptor, with the affinity constant Ki represening a measure of the potency of the compounds and a smaller value representing a larger potency. The compounds of the invention were tested in the following receptor binding assay for their affinity for the V1 b receptor.
Vasopressin V1 b Receptor Binding Assay:
The test substances were dissolved in a concentration of 10^−2 M in DMSO (dimethyl sulfoxide) and further diluted to 5×10^−4 M to 5×10^−9 M in DMSO. This series of DMSO predilutions was diluted 1:10 with assay buffer. The substance concentration was again diluted 1:5 in the assay mixture (2% DMSO in the mixture).
The membrane pellet was again homogenized and centrifuged as described and then taken up in 50 mM Tris-HCl, pH 7.4, homogenized and stored in aliquots frozen in liquid nitrogen at −190° C.
The incubation buffer was: 50 mM Tris, 10 mM MgCl2, 0.1% BSA, pH 7.4.
The nonspecific binding was determined with 1 μM AVP (Bachem #H1780). All determinations were carried out as triplicate determinations. After incubation (60 minutes at room temperature), the free radioligand was removed by vacuum filtration (Skatron cell harvester 7000) through Whatman GF/B glass fiber filter mats, and the filters were transferred into scintillation vials. The liquid scintillation measurement took place in a Tricarb model 2000 or 2200CA instrument (Packard). Conversion of the measured cpm into dpm was carried out with the aid of a standard quench series.
The binding parameters were calculated by nonlinear regression in SAS.
The above assay was used to measure the affinities of the compounds of the invention for the human vasopressin V1 b receptor and to determine with affinity constants (Ki).

Ki | Compound
< 10 nM | CCOc1nc(Cl)ccc1C1(N2CCN(c3ccncc3)CC2)C(=O)N(S(=O)(=O)c2cccc3cccnc23)c2ccc(C#N)cc21 (racemic) [Example 24, (±)-5-Cyano-3-(6-chloro-2-ethoxypyridin-3-yl)-3-(4-pyridin-4-ylpiperazin-1-yl)-1-(quinoline-8-sulfonyl)-2,3-dihydro-1H-indol-2-one]
10 to 50 nM | CCOc1cc(F)ccc1C1(N2CCN(c3ccncc3)CC2)C(=O)N(S(=O)(=O)c2ccc(C)cn2)c2ccc(C#N)cc21 (racemic) [Example 49, (±)-5-Cyano-3-(2-ethoxy-4-fluorophenyl)-1-(5-methylpyridine-2-sulfonyl)-3-(4-pyridin-4-ylpiperazin-1-yl)-2,3-dihydro-1H-indol-2-one]
< 10 nM | CCOc1ccc(OC)cc1C1(N2CCN(c3ccncc3)CC2)C(=O)N(S(=O)(=O)c2cccc3cccnc23)c2ccc(C#N)cc21 (racemic) [Example 13, (±)-5-Cyano-3-(2-ethoxy-5-methoxyphenyl)-3-(4-pyridin-4-yl-piperazin-1-yl)-1-(quinoline-8-sulfonyl)-2,3-dihydro-1H-indol-2-one]
< 10 nM | CCOc1cc(OC)ccc1C1(N2CCN(c3ccnc(C(C)C)c3)CC2)C(=O)N(S(=O)(=O)c2ccc(OC)cn2)c2ccc(C#N)cc21 (racemic) [Example 175, (±)-5-Cyano-3-(2-ethoxy-4-methoxy-phenyl)-3-[4-(2-isopropyl-pyridin-4-yl)-piperazin-1-yl]-1-(5-methoxy-pyridine-2-sulfonyl)-2,3-dihydro-1H-indol-2-one]
< 10 nM | CCOc1ccc(OC)cc1C1(N2CCN(c3ccnc(C(C)C)c3)CC2)C(=O)N(S(=O)(=O)c2ccc(OC)cn2)c2ccc(C#N)cc21 (single isomer, unassigned; (+)) [Example 143, (+)-5-Cyano-3-(2-ethoxy-5-methoxy-phenyl)-3-[4-(2-isopropyl-pyridin-4-yl)-piperazin-1-yl]-1-(5-methoxy-pyridine-2-sulfonyl)-2,3-dihydro-1H-indol-2-one]
10 to 50 nM | CCOc1ccc(OC)cc1C1(N2CCC(N3CCN(CC)CC3)CC2)C(=O)N(S(=O)(=O)c2ccc(OC)cn2)c2ccc(C#N)cc21 (racemic) [Example 145, (±)-5-Cyano-3-(2-ethoxy-5-methoxy-phenyl)-3-[4-(4-ethyl-piperazin-1-yl)-piperidin-1-yl]-1-(5-methoxy-pyridine-2-sulfonyl)-2,3-dihydro-1H-indol-2-one]
< 10 nM | CCOc1ccc(OC)cc1C1(N2CCN(c3ccncc3)CC2)C(=O)N(S(=O)(=O)c2ccc(OC)cn2)c2ccc(C#N)cc21 (single isomer, unassigned; (+)) [Example 163, (+)-5-Cyano-3-(2-ethoxy-5-methoxy-phenyl)-1-(5-methoxy-pyridine-2-sulfonyl)-3-(4-pyridin-4-yl-piperazin-1-yl)-2,3-dihydro-1H-indol-2-one]
< 10 nM | CCOc1nc(Cl)ccc1C1(N2CCN(c3ccnc(C)c3)CC2)C(=O)N(S(=O)(=O)c2ccc(OC)cn2)c2ccc(C#N)cc21 (single isomer, unassigned; (+)) [Example 151, (+)-5-Cyano-3-(6-chloro-2-ethoxy-pyridin-3-yl)-1-(5-methoxy-pyridine-2-sulfonyl)-3-[4-(2-methyl-pyridin-4-yl)-piperazin-1-yl]-2,3-dihydro-1H-indol-2-one]
< 10 nM | CCOc1cc(F)ccc1C1(N2CCN(c3ccnc(C(C)C)c3)CC2)C(=O)N(S(=O)(=O)c2ccc(OC)cn2)c2ccc(C#N)cc21 (racemic) [Example 153, (±)-5-Cyano-3-(2-ethoxy-4-fluoro-phenyl)-3-[4-(2-isopropyl-pyridin-4-yl)-piperazin-1-yl]-1-(5-methoxy-pyridine-2-sulfonyl)-2,3-dihydro-1H-indol-2-one]
10 to 50 nM | CCOc1ccc(OC)cc1C1(N2C[C@@H]3C[C@H]2CN3c2ccncc2)C(=O)N(S(=O)(=O)c2ccc(C)cn2)c2ccc(C#N)cc21 (mixture of isomers) [Example 20, (±)-5-Cyano-3-(2-ethoxy-5-methoxyphenyl)-1-(5-methylpyridine-2-sulfonyl)-3-((1S, 4S)-5-pyridin-4-yl-2,5-diazabicyclo[2.2.1]hept-2-yl)-2,3-dihydro-1H-indol-2-one]
10 to 50 nM | CCOc1ccccc1C1(N2CCCN(c3ccncc3)CC2)C(=O)N(S(=O)(=O)c2ccc(OC)cn2)c2ccc(C#N)cc21 (racemic) [Example 78, (±)-5-Cyano-3-(2-ethoxyphenyl)-1-(5-methoxypyridine-2-sulfonyl)-3-(4-pyridin-4-yl-[1,4]diazepan-1-yl)-2,3-dihydro-1H-indol-2-one]
< 10 nM | CCOc1nc(Cl)ccc1C1(N2CCN(c3ccncc3)CC2)C(=O)N(S(=O)(=O)c2ccc(OC)cn2)c2ccc(C#N)cc21 (racemic) [Example 36, (±)-5-Cyano-3-(6-chloro-2-ethoxypyridin-3-yl)-1-(5-methoxypyridine-2-sulfonyl)-3-(4-pyridin-4-ylpiperazin-1-yl)-2,3-dihydro-1H-indol-2-one]
< 10 nM | CCOc1cc(F)ccc1C1(N2CCN(c3ccnc(C)c3)CC2)C(=O)N(S(=O)(=O)c2ccc(OC)cn2)c2ccc(C#N)cc21 (racemic) [Example 144, (±)-5-Cyano-3-(2-ethoxy-4-fluoro-phenyl)-1-(5-methoxy-pyridine-2-sulfonyl)-3-[4-(2-methyl-pyridin-4-yl)-piperazin-1-yl]-2,3-dihydro-1H-indol-2-one]
< 10 nM | CCOc1ccccc1C1(N2CCN(c3ccncc3)CC2)C(=O)N(S(=O)(=O)c2ccc(OC)c3cccnc23)c2ccc(C#N)cc21 (racemic) [Example 25, (±)-5-Cyano-3-(2-ethoxyphenyl)-1-(5-methoxyquinoline-8-sulfonyl)-3-(4-pyridin-4-yl-piperazin-1-yl)-2,3-dihydro-1H-indol-2-one]
10 to 50 nM | CCOc1ccc(OC)cc1C1(N2CCN(c3ccncc3)CC2)C(=O)N(S(=O)(=O)c2ccc(Cl)c3cccnc23)c2ccc(C#N)cc21 (racemic) [Example 48, (±)-5-Cyano-1-(5-chloroquinoline-8-sulfonyl)-3-(2-ethoxy-5-methoxyphenyl)-3-(4-pyridin-4-ylpiperazin-1-yl)-2,3-dihydro-1H-indol-2-one]
10 to 50 nM | COc1ccc(OC)c(C2(N3CCN(c4ccncc4)CC3)C(=O)N(S(=O)(=O)c3cccc4c(C)ccnc34)c3ccc(C#N)cc32)c1 (racemic) [Example 50, (±)-5-Cyano-3-(2,5-dimethoxyphenyl)-1-(4-methylquinoline-8-sulfonyl)-3-(4-pyridin-4-yl-piperazin-1-yl)-2,3-dihydro-1H-indol-2-one]
< 10 nM | CCOc1ccc(CC)cc1C1(N2CCN(c3ccnc(C)c3)CC2)C(=O)N(S(=O)(=O)c2ccc(OC)cn2)c2ccc(C#N)cc21 (racemic) [Example 165, (±)-5-Cyano-3-(2-ethoxy-5-ethyl-phenyl)-1-(5-methoxy-pyridine-2-sulfonyl)-3-[4-(2-methyl-pyridin-4-yl)-piperazin-1-yl]-2,3-dihydro-1H-indol-2-one]
< 10 nM | CCOc1ccc(OC)cc1C1(N2CCC(C3CCNCC3)CC2)C(=O)N(S(=O)(=O)c2ccc(OC)cn2)c2ccc(C#N)cc21 (racemic) [Example 181, (±)-5-Cyano-3-[4,4′]bipiperidinyl-1-yl-3-(2-ethoxy-5-methoxy-phenyl)-1-(5-methoxy-pyridine-2-sulfonyl)-2,3-dihydro-1H-indol-2-one]
10 to 50 nM | COc1ccccc1C1(N2CCN(c3ccncc3)CC2)C(=O)N(S(=O)(=O)c2cccc3cccnc23)c2ccc(C#N)cc21 (racemic) [Example 43, (±)-5-Cyano-3-(2-methoxyphenyl)-3-(4-pyridin-4-ylpiperazin-1-yl)-1-(quinoline-8-sulfonyl)-2,3-dihydro-1H-indol-2-one]
10 to 50 nM | CCOc1ccccc1C1(N2CCN(c3ccnc(C)c3)CC2)C(=O)N(S(=O)(=O)c2cccc3cccnc23)c2ccc(C#N)cc21 (racemic) [Example 44, (±)-5-Cyano-3-(2-ethoxyphenyl)-3-[4-(2-methylpyridin-4-yl)piperazin-1-yl]-1-(quinoline-8-sulfonyl)-2,3-dihydro-1H-indol-2-one]
10 to 50 nM | COc1ccc(CN(C)C)cc1C1(N2CCN(c3ccncc3)CC2)C(=O)N(S(=O)(=O)c2cccc3cccnc23)c2ccc(Cl)cc21 (racemic) [Example 41, (±)-5-Chloro-3-(5-dimethylaminomethyl-2-methoxyphenyl)-3-(4-pyridin-4-ylpiperazin-1-yl)-1-(quinoline-8-sulfonyl)-1,3-dihydroindol-2-one]
